Assay [1] deals with T1, human EP4 receptor (Homo sapiens, UniProt P35408).
T1 construct: expressed in transfected cells; membrane fraction used
Nature of the assay: cAMP assay (AlphaScreen) on human EP4 membrane of transfected cells, antagonism of PGE2. The assay is classed as biochemical. The following applies: HEK293 hEP4 cell membrane stimulated with PGE2 3 nM; read-out: functional IC50. An excerpt: (§1) Stable Expression of Human EP4 Receptors in the Human Embryonic Kidney (HEK293) Cell Line
(§2) The cDNA clone of human EP4 receptor (NM_000958.2) was obtained from Invitrogen™: Ultimate™ ORF Clone Collection—Clone ID IOH46525. The coding sequence was subcloned in expression vector pcDNA™6.2/V5-DEST by Gateway technology (Invitrogen™).
(§3) Human embryonic kidney cells (HEK-293) were stably transfected with expression vector for human EP4 receptor in according to the method described in FuGENE®6 Transfection Reagent's manual (Roche Applied Science®).
(§4) Preparation of Membrane Fraction:
(§5) The EP4 transfected cells were grown in Dulbecco's modified Eagle's medium containing 10% fetal bovine serum and 10 μg/ml Blasticidin S HCl (selection medium) at 37° C. in a humidified atmosphere of 5% CO2 in air.
(§6) For the membrane preparation, cells in flask were harvested by hypotonical/mechanical lysis with chilled (4° C.) TE buffer (5 mM TRIS, 5 mM etylenediamine tetra-acetic acid (EDTA), pH 7.4).
(§7) Cells were detached and lysed with 10 ml of hypotonic lysis buffer and by scraping. The cell lysate was vortexed for 30 sec and centrifuged at 40000×g at 4° C. for 22 min.
b) cAMP Assay on Human EP4 Membrane of Transfected Cells.
The assay is based on the competition between endogenous cAMP and exogenously added biotinylated cAMP. The capture of cAMP is achieved by using a specific antibody conjugated to […] beads.
Cell membranes prepared as described above, were resuspended in 1 ml stimulation buffer (HBSS 1×+BSA 0.1%+IBMX 0.5 mM+HEPES 5 mM+MgCl2 10 mM+GTP 1 nM+GDP 10 μM+ATP 100 μM−pH 7.4). Cell membranes were dispensed into white 384-well microplates at final concentration of 1 μg/well and used for the determination of cAMP with the alphascreen cAMP functional assay (EnVision—PerkinElmer). Cell membrane/anti-cAMP Acceptor beads mix (5 μl) and a mixture of analysed compounds (dissolved in 100% DMSO to a final maximal concentration of 0.01% DMSO)/PGE2 (5 μl) were incubated at room temperature (22-23° C.) for 30 min in the dark. The Biotinylated-cAMP and donor beads (15 μl) were dispensed into each well to start the competition reaction. After 1 h incubation RT (22-23° C.) in the dark the plate was read using EnVision platform to determine the cAMP level (excitation: 680 nm; emission: 520,620 nm).
cAMP standard curve (concentration range from 1×10-6 to 1×10-11 M in. log intervals) with a negative control (no cAMP) a positive control:forskolin 10 μM
Antagonism studies were performed stimulating HEK293 cell membrane with PGE2 3 nM. The AlphaScreen signal is plotted as a function of log concentration of cAMP and functional IC50 is determined. IC50 value is calculated by linear regression.
Some compounds were tested according to method of example 83b.
(cAMP levels reflect the balance of adenylyl cyclase and phosphodiesterase activity.)

Assay [2] addresses T1, human EP4 receptor. The experiment in a line: [3H]-Prostaglandin E2 membrane binding assay (human EP4/HEK293 transfectant membranes). The following applies: [3H]-PGE2 1 nM, hEP4/HEK293 membranes; Ki by Cheng-Prusoff; read-out: Binding pKi (converted).
Source text: as §1, §2, §3, §4, §5, §6, §7
a) Membrane Binding Assay[3H]-Prostaglandin E2
The membrane pellet was resuspended in the same buffer (5 mM TRIS, 5 mM ethylenediamine tetra-acetic acid (EDTA), pH 7.4), and protein concentration was determined by Bradford method (Bio-Bad® assay).
This membrane preparation was stored at −80° C. freezer until use for binding assay.
([^3H]-PGE2) membranes binding assays toward hEP4 receptors (human EP4/HEK293 transfectant, see above) and hEP2 receptors (human EP2/HEK293 transfectant, purchased from PerkinElmer Inc) were performed in 10 mM MES-KOH buffer pH6, containing 10 mM MgCl2 and 1 mM CaCl2 for EP4 binding assay or 50 mM Tris-Cl, BSA 0.5% for EP2 binding assay (according to supplier indication).
Ten microgram of protein from membrane fractions were incubated in a total volume of 0.1 ml (EP4) or 0.2 ml (EP2) with 1 nM (EP4) or 3 nM (EP2) [^3H]-PGE2 (PerkinElmer Inc, 171 Ci/mmol). In both assays to determine the total binding or non specific binding, 1% DMSO or 1 μM prostaglandin E2 (EP4) or 100 μM (EP2) were added to reaction mixtures, respectively. Incubation was conducted in a polypropylene 96 multiwell for 90 min (EP4) or 60 min (EP2) at room temperature prior to separation of the bound and free radioligand by vacuum manifold rapid filtration on glass fiber filters (Unifilter GFB96, PerkinElmer Inc) pre-soaked in 0.3% polyethyleneimine. Filters were washed with ice cold buffer pH 7.4 (50 mM HEPES, NaCl 500 mM, BSA 0.1% for EP4 binding assay or 50 mM Tris-Cl for EP2 binding assays) and the residual [^3H]-PGE2 binding determined by solid scintillation counter (TopCount, PerkinElmer Inc).
The affinity (Ki) of each compound was calculated according to the Cheng-Prousoff equation: Ki=IC50/(1+([C]/Kd)). Results were expressed as pKi (−log 10 Ki (M)
Compounds of example 1 to 82 were tested according to method of example 83a in a final concentration range from 1 nM to 1 μM.

Usually IC50 stands for the concentration that inhibits the measured activity by half.

SMILES strings stand for the structures.

T1 sequence (P35408 whole entry): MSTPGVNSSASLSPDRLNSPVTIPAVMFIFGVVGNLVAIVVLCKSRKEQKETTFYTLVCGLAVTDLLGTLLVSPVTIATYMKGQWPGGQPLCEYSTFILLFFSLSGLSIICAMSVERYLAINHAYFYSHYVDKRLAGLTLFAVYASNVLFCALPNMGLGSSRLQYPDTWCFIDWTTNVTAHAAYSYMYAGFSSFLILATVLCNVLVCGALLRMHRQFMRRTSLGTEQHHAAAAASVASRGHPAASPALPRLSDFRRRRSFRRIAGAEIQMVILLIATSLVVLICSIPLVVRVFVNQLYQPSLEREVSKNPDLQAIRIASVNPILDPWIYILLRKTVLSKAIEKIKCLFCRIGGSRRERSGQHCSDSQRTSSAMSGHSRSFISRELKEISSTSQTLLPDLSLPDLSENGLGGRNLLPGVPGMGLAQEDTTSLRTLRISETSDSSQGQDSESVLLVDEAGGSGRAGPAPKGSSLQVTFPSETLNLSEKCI

Take `O=C(O)c1ccc(C2(NC(=O)c3cc(C(F)(F)F)cnc3N3CC(Oc4ccc(F)cc4F)C3)CC2)cc1` [E 44, 4-(1-(2-(3-(2,4-difluorophenoxy)azetidin-1-yl)-5-(trifluoromethyl)nicotinamido)cyclopropyl)benzoic acid]: the IC50 at human EP4 receptor [1] is 17.5 nM. For the same compound, the Ki on human EP4 receptor [2] was 10 nM.

On to `C[C@H](NC(=O)c1cc(Cl)cnc1N1CC(Oc2cccc(F)c2)C1)c1ccc(C(=O)O)cc1` [E 12, (S)-4-(1-(5-chloro-2-(3-(3-fluorophenoxy)azetidin-1-yl)nicotinamido)ethyl)benzoic acid], for which, on human EP4 receptor [1], the IC50 is 102 nM. In addition, on human EP4 receptor [2], the Ki is 15.8 nM.

In the case of `O=C(O)c1ccc(C2(NC(=O)c3cc(C(F)(F)F)cnc3N3CC(Oc4ccc(Cl)cc4)C3)CC2)cc1` [E 40, 4-(1-(2-(3-(4-chlorophenoxy)azetidin-1-yl)-5-(trifluoromethyl)nicotinamido)cyclopropyl)benzoic acid], at human EP4 receptor [1], the IC50 was 10 nM. For the same compound, at human EP4 receptor [2], the Ki is 5.01 nM.

Take `O=C(O)c1ccc(C2(NC(=O)c3cc(F)cnc3N3CC(Oc4cccc(OC(F)(F)F)c4)C3)CC2)cc1` [E 55, 4-(1-(5-fluoro-2-(3-(3-(trifluoromethoxy)phenoxy)azetidin-1-yl)nicotinamido)cyclopropyl)benzoic acid]: the IC50 at human EP4 receptor [1] turned out to be 126 nM. The Ki on human EP4 receptor [2] was 31.6 nM.

Turning to `O=C(O)c1ccc(C2(NC(=O)c3cc(Cl)cnc3N3CCC[C@@H]3COc3cccc(F)c3)CC2)cc1` [E 77, 4 (R)-4-(1-(5-chloro-2-(2-((3-fluorophenoxy)methyl)pyrrolidin-1-yl)nicotinamido)cyclopropyl)benzoic acid], the IC50 on human EP4 receptor [1] is 90 nM. Further, the Ki on human EP4 receptor [2] is 10 nM.

For the compound `O=C(O)c1ccc(C2(NC(=O)c3cc(Cl)cnc3N3CC(Oc4cccc(OC(F)(F)F)c4)C3)CC2)cc1` [E 18, 4-(1-(5-chloro-2-(3-(3-(trifluoromethoxy)phenoxy)azetidin-1-yl)nicotinamido)cyclopropyl)benzoic acid], at human EP4 receptor [1], the IC50 amounted to 22 nM. Further, the Ki on human EP4 receptor [2] was 12.6 nM.

`Cc1cc(F)ccc1N(C)C1CN(c2ncc(Cl)cc2C(=O)NC2(c3ccc(C(=O)O)cc3)CC2)C1` [E 37, 4-(1-(5-chloro-2-(3-((4-fluoro-2-methylphenyl)(methyl)amino)azetidin-1-yl)nicotinamido)cyclopropyl)benzoic acid]: the IC50 at human EP4 receptor [1] came out at 31 nM. Further, at human EP4 receptor [2], the Ki is 12.6 nM.

Take `O=C(O)c1ccc(C2(NC(=O)c3cc(Cl)cnc3N3CC(C(=O)c4cccc(F)c4)C3)CC2)cc1` [E 25, 4-(1-(5-chloro-2-(3-(3-fluorobenzoyl)azetidin-1-yl)nicotinamido)cyclopropyl)benzoic acid]: the IC50 on human EP4 receptor [1] is 135 nM. For the same compound, the Ki at human EP4 receptor [2] is 63.1 nM.

As to `O=C(O)c1ccc(C2(NC(=O)c3cc(Cl)cnc3N3CCC(c4ccccc4)C3)CC2)cc1` (single isomer, unassigned) [E 4, 4-(1-(5-chloro-2-(3-phenylpyrrolidin-1-yl)nicotinamido)cyclopropyl)benzoic acid], the IC50 at human EP4 receptor [1] is 102 nM. At human EP4 receptor [2], the Ki was 200 nM.

`O=C(O)c1ccc(C2(NC(=O)c3cc(Cl)cnc3N3CC(O)(c4ccc(F)cc4)C3)CC2)cc1` [E 28, 4-(1-(5-chloro-2-(3-(4-fluorophenyl)-3-hydroxyazetidin-1-yl)nicotinamido)cyclopropyl)benzoic acid]: the IC50 on human EP4 receptor [1] worked out at 197 nM. Also, the Ki at human EP4 receptor [2] is 79.4 nM.

With `O=C(O)c1ccc(C2(NC(=O)c3cc(C(F)(F)F)cnc3N3CC(Nc4ccc(F)cc4F)C3)CC2)cc1` [E 52, 4-(1-(2-(3-((2,4-difluorophenyl)amino)azetidin-1-yl)-5-(trifluoromethyl)nicotinamido)cyclopropyl)benzoic acid], the IC50 on human EP4 receptor [1] turned out to be 74 nM. The Ki at human EP4 receptor [2] was 20 nM.

For the compound `O=C(O)c1ccc(C2(NC(=O)c3cc(Cl)cnc3N3CC(Nc4cccc(F)c4)C3)CC2)cc1` [E 32, 4-(1-(5-chloro-2-(3-((3-fluorophenyl)amino)azetidin-1-yl)nicotinamido)cyclopropyl)benzoic acid], at human EP4 receptor [1], the IC50 came to 76 nM. At human EP4 receptor [2], the Ki is 25.1 nM.

Turning to `O=C(O)c1ccc(C2(NC(=O)c3cc(C(F)(F)F)cnc3N3CC(Nc4cccc(F)c4)C3)CC2)cc1` [E 49, 4-(1-(2-(3-((3-fluorophenyl)amino)azetidin-1-yl)-5-(trifluoromethyl)nicotinamido)cyclopropyl)benzoic acid], the IC50 on human EP4 receptor [1] came to 69 nM. On human EP4 receptor [2], the Ki is 25.1 nM.

Regarding `O=C(O)c1ccc(C2(NC(=O)c3cc(Cl)cnc3N3CCC(Oc4ccccc4)C3)CC2)cc1` (single isomer, unassigned) [E 62], the IC50 on human EP4 receptor [1] was 46 nM. The Ki on human EP4 receptor [2] was 25.1 nM.

For the compound `O=C(O)c1ccc(C2(NC(=O)c3cc(Cl)cnc3N3CCC(Oc4ccc(F)cc4)C3)CC2)cc1` (single isomer, unassigned) [E 68, 4-(1-(5-chloro-2-(3-(4-fluorophenoxy)pyrrolidin-1-yl)nicotinamido)cyclopropyl)benzoic acid], the IC50 at human EP4 receptor [1] amounted to 66 nM. Further, the Ki at human EP4 receptor [2] is 31.6 nM.

In the case of `O=C(O)c1ccc(C2(NC(=O)c3cc(C(F)(F)F)cnc3N3CC(Oc4ccc(F)c(F)c4)C3)CC2)cc1` [E 45, 4-(1-(2-(3-(3,4-difluorophenoxy)azetidin-1-yl)-5-(trifluoromethyl)nicotinamido)cyclopropyl)benzoic acid], the IC50 at human EP4 receptor [1] is 10 nM. At human EP4 receptor [2], the Ki was 3.16 nM.

With `C[C@H](NC(=O)c1cc(Cl)cnc1N1CC(Oc2ccc(F)cc2)C1)c1ccc(C(=O)O)cc1` [E 11, (S)-4-(1-(5-chloro-2-(3-(4-fluorophenoxy)azetidin-1-yl)nicotinamido)ethyl)benzoic acid], on human EP4 receptor [1], the IC50 turned out to be 386 nM. Moreover, the Ki at human EP4 receptor [2] is 100 nM.

Regarding `O=C(O)c1ccc(C2(NC(=O)c3cc(Cl)cnc3N3CCC(Oc4cccc(C(F)(F)F)c4)C3)CC2)cc1` (single isomer, unassigned) [E 63, 4-(1-(5-chloro-2-(3-(3-(trifluoromethyl)phenoxy)pyrrolidin-1-yl)nicotinamido)cyclopropyl)benzoic acid], the IC50 on human EP4 receptor [1] was 145 nM. For the same compound, on human EP4 receptor [2], the Ki is 31.6 nM.

With `O=C(O)c1ccc(C2(NC(=O)c3cc(Cl)cnc3N3CCC(Oc4ccc(F)cc4)C3)CC2)cc1` (single isomer, unassigned) [E 66, 4-(1-(5-chloro-2-(3-(4-fluorophenoxy)pyrrolidin-1-yl)nicotinamido)cyclopropyl)benzoic acid], the IC50 on human EP4 receptor [1] was determined as 43 nM. The Ki at human EP4 receptor [2] was 39.8 nM.

These data come from US8828987B2, “Pyridine amide derivatives as EP4 receptor antagonists” (Rottapharm Biotech S.R.L., priority 2010, dated 2014).
